Key:
Proteus rettgeri = experiment: MIC against clinical isolates; type: cell-based; conditions: clinical isolate, unit assumed
Staphylococcus aureus = experiment: MIC against clinical isolates; type: cell-based; conditions: unit assumed
Salmonella typhi = experiment: MIC against clinical isolates; type: cell-based; conditions: unit assumed
Proteus vulgaris = experiment: MIC against clinical isolates; type: cell-based; conditions: clinical isolate, unit assumed
Pseudomonas aeruginosa = experiment: MIC against clinical isolates; type: cell-based; conditions: unit assumed
β-lactamase = experiment: Resistant activity against β-lactamase, iodometric assay; type: biochemical, Pseudomonas aeruginosa GN 238; conditions: relative to Potassium Penicillin G = 100
Procedure: (3) Resistant activity against β-lactamase, Pseudomonas aergionan GN 238:
The resistant activity of each compound against β-lactamase was measured in the manner described below.
β-Lactamase was prepared from Pseudomonas aeruginosa GN 238. This microorganism was cultured in 100 ml of a medium containing 2 g of yeast extract, 10 g of polypeptone, 2 g of glucose, 7 g of disodium hydrogen phosphate, 2 g of potassium dihydrogen phosphate, 1.2 g of ammonium sulfate and 0.4 g of magnesium sulfate, per liter, in a 500-ml Erlenmeyer flask for 6 hrs. at 37° C with shaking. The resulting cells were collected by centrifugation (5,000 r.p.m. × 10 min.), washed three times with 0.1 M phosphate buffer (pH 7.0). Subsequently, the cells were subjected to sonication (20 KHz, 20 min.) and then centrifuged at 15,000 r.p.m. for 60 min. By using the supernatant of enzyme fluid, the resistance of each compound against β-lactamase was determined by the iodometric assay method. Each numeral shown in Table 7 is a relative activity value calculated by assuming as 100 the activity of the control Potassium Penicillin G.

Escherichia coli = experiment: MIC against clinical isolates; type: cell-based; conditions: unit assumed
Shigella sonnei = experiment: MIC against clinical isolates; type: cell-based; conditions: clinical isolate JS 11232; unit assumed
Procedure: (§1) The minimum inhibitory concentrations (MIC) was determined by the plate method disclosed in "Chemotherapy" (Japan), Vol. 16, (1968), pages 98 - 99. The culture medium used was a Heart infusion agar (pH 7.4). The number of the cells per plate used in the inoculum as 10^4 (10^6 cells/ml).
(§2) MIC was determined in the same manner as in the preceding paragraph (1).

Shigella flexneri = experiment: MIC against clinical isolates; type: cell-based; conditions: clinical isolate JS 11215; unit assumed
Procedure: as §1, §2

Klebsiella pneumoniae [1] = experiment: MIC against clinical isolates; type: cell-based; conditions: unit assumed
Proteus morganii = experiment: MIC against clinical isolates; type: cell-based; conditions: clinical isolate, unit assumed
Salmonella typhi-murium = experiment: MIC against clinical isolates; type: cell-based; conditions: unit assumed
Escherichia coli NIHJ = experiment: MIC against standard strain, plate method; type: cell-based; conditions: unit assumed
In short: (§3)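 MIC values come from the plate method on heart infusion agar at pH 7.4, with each plate receiving 10^4 cells from a 10^6 cells/ml suspension.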

[2] = test system: Staphylococcus aureus 209p; experiment: MIC against standard strain, plate method; type: cell-based; conditions: unit assumed
In short: as §3

Proteus vulgaris 3027 = experiment: MIC against standard strain, plate method; type: cell-based; conditions: Proteus vulgaris 3027, standard strain; unit assumed
In short: as §3

Proteus mirabilis = experiment: MIC against clinical isolates; type: cell-based; conditions: clinical isolate, unit assumed
[3] = test system: Pseudomonas aeruginosa I.F.O.; experiment: MIC against standard strain, plate method; type: cell-based; conditions: unit assumed
In short: as §3

Klebsiella pneumoniae [4] = experiment: MIC against standard strain, plate method; type: cell-based; conditions: unit assumed
In short: as §3

[5] = clinical isolate GN (number not given; Table 5-3)

CN1CCN(C(=O)N[C@@H](C(=O)N[C@@H]2C(=O)N3[C@@H]2SC(C)(C)[C@@H]3C(=O)O)c2ccccc2)C(=O)C1=O (single isomer, unassigned) [compound 37]
< 0.4 mg/L: MIC (Proteus vulgaris)
1.57 mg/L: MIC (Staphylococcus aureus; clinical isolate F-2)
> 200 mg/L: MIC (Staphylococcus aureus; clinical isolate F-5) | MIC (Escherichia coli; clinical isolate GN 3611) | MIC (Escherichia coli; clinical isolate K-3) | MIC (Shigella flexneri) | MIC (Salmonella typhi-murium; clinical isolate SL 2136)
3.13 mg/L: MIC (Salmonella typhi; clinical isolate SL 2169)
12.5 mg/L: MIC (Salmonella typhi-murium; clinical isolate SL 858)
25 mg/L: MIC (Proteus rettgeri) | MIC (Pseudomonas aeruginosa; clinical isolate GN 383) | MIC (Pseudomonas aeruginosa; clinical isolate GN 2565) | MIC (Pseudomonas aeruginosa; clinical isolate GN 2987) | MIC (Pseudomonas aeruginosa; clinical isolate S-2) | MIC (Klebsiella pneumoniae [1]; clinical isolate GN 3850)
6.25 mg/L: MIC (Salmonella typhi; clinical isolate SL 819)
0.79 mg/L: MIC (Staphylococcus aureus; clinical isolate MS 8619) | MIC (Proteus morganii) | MIC (Proteus mirabilis)
15%: Relative activity (β-lactamase)
50 mg/L: MIC (Pseudomonas aeruginosa; clinical isolate GN 1035) | MIC (Pseudomonas aeruginosa; [5]) | MIC (Pseudomonas aeruginosa; clinical isolate S-3)
200 mg/L: MIC (Pseudomonas aeruginosa; clinical isolate S-1) | MIC (Escherichia coli; clinical isolate GN 3465) | MIC (Klebsiella pneumoniae [1]; clinical isolate GN 4081)
100 mg/L: MIC (Pseudomonas aeruginosa; clinical isolate S-4) | MIC (Shigella sonnei) | MIC (Klebsiella pneumoniae [1]; clinical isolate GN 4117)
< 1.57 mg/L: MIC (Escherichia coli NIHJ) | MIC [2] | MIC (Proteus vulgaris 3027)

CCCN1CCN(C(=O)N[C@@H](C(=O)N[C@@H]2C(=O)N3[C@@H]2SC(C)(C)[C@@H]3C(=O)O)c2ccccc2)C(=O)C1=O (single isomer, unassigned) [compound 38]
25 mg/L: MIC (Shigella flexneri)
15%: Relative activity (β-lactamase)
6.25 mg/L: MIC (Staphylococcus aureus; clinical isolate F-1) | MIC (Staphylococcus aureus; clinical isolate F-4) | MIC (Staphylococcus aureus; clinical isolate MS 8713) | MIC (Pseudomonas aeruginosa; clinical isolate GN 221) | MIC (Pseudomonas aeruginosa; clinical isolate GN 383) | MIC (Pseudomonas aeruginosa; clinical isolate GN 2987) | MIC (Pseudomonas aeruginosa; [5]) | MIC (Klebsiella pneumoniae [1]; clinical isolate GN 3850) | MIC [3]
200 mg/L: MIC (Salmonella typhi-murium; clinical isolate SL 2136)
0.79 mg/L: MIC (Staphylococcus aureus; clinical isolate F-3) | MIC (Staphylococcus aureus; clinical isolate MS 8619) | MIC (Salmonella typhi; clinical isolate SL 2169) | MIC (Escherichia coli; clinical isolate GN 3435) | MIC (Escherichia coli; clinical isolate K-4)
3.13 mg/L: MIC (Salmonella typhi-murium; clinical isolate SL 858)
> 200 mg/L: MIC (Staphylococcus aureus; clinical isolate F-5) | MIC (Escherichia coli; clinical isolate GN 3611) | MIC (Escherichia coli; clinical isolate K-3)
50 mg/L: MIC (Escherichia coli; clinical isolate GN 3465) | MIC (Shigella sonnei) | MIC (Klebsiella pneumoniae [1]; clinical isolate GN 4081) | MIC (Klebsiella pneumoniae [1]; clinical isolate GN 4117)
1.57 mg/L: MIC (Salmonella typhi; clinical isolate SL 819)
< 0.4 mg/L: MIC (Proteus vulgaris) | MIC (Proteus morganii) | MIC (Proteus mirabilis)
0.4 mg/L: MIC [2] | MIC (Proteus vulgaris 3027)
12.5 mg/L: MIC (Proteus rettgeri) | MIC (Pseudomonas aeruginosa; clinical isolate GN 1035) | MIC (Pseudomonas aeruginosa; clinical isolate GN 2565) | MIC (Pseudomonas aeruginosa; clinical isolate S-1) | MIC (Pseudomonas aeruginosa; clinical isolate S-2) | MIC (Pseudomonas aeruginosa; clinical isolate S-3) | MIC (Pseudomonas aeruginosa; clinical isolate S-4)
< 0.1 mg/L: MIC (Escherichia coli NIHJ)

CCCCCCCCN1CCN(C(=O)N[C@@H](C(=O)N[C@@H]2C(=O)N3[C@@H]2SC(C)(C)[C@@H]3C(=O)O)c2ccccc2)CC1=O [compound 30]
100 mg/L: MIC (Staphylococcus aureus; clinical isolate F-5) | MIC (Pseudomonas aeruginosa; clinical isolate S-3) | MIC (Klebsiella pneumoniae [1]; clinical isolate GN 4081) | MIC (Klebsiella pneumoniae [1]; clinical isolate GN 4117)
12.5 mg/L: MIC (Proteus rettgeri) | MIC (Pseudomonas aeruginosa; clinical isolate GN 2987) | MIC (Escherichia coli; clinical isolate GN 3435) | MIC (Escherichia coli; clinical isolate K-1) | MIC (Escherichia coli; clinical isolate K-4)
3%: Relative activity (β-lactamase)
< 1.57 mg/L: MIC (Escherichia coli NIHJ) | MIC [2]
25 mg/L: MIC (Pseudomonas aeruginosa; clinical isolate GN 82) | MIC (Pseudomonas aeruginosa; clinical isolate GN 163) | MIC (Pseudomonas aeruginosa; clinical isolate GN 1091) | MIC (Escherichia coli; clinical isolate GN 3452) | MIC (Escherichia coli; clinical isolate GN 3481) | MIC (Escherichia coli; clinical isolate K-2) | MIC (Klebsiella pneumoniae [1]; clinical isolate GN 917) | MIC (Klebsiella pneumoniae [1]; clinical isolate GN 3850) | MIC [3]
< 0.4 mg/L: MIC (Staphylococcus aureus; clinical isolate MS 8619)
6.25 mg/L: MIC (Klebsiella pneumoniae [4])
0.79 mg/L: MIC (Staphylococcus aureus; clinical isolate F-2) | MIC (Staphylococcus aureus; clinical isolate F-3)
> 200 mg/L: MIC (Escherichia coli; clinical isolate GN 3611) | MIC (Escherichia coli; clinical isolate K-3)
3.13 mg/L: MIC (Staphylococcus aureus; clinical isolate F-1) | MIC (Staphylococcus aureus; clinical isolate F-4) | MIC (Proteus vulgaris) | MIC (Proteus morganii) | MIC (Proteus vulgaris 3027) | MIC (Proteus mirabilis)
1.57 mg/L: MIC (Staphylococcus aureus; clinical isolate MS 8588) | MIC (Staphylococcus aureus; clinical isolate MS 8596) | MIC (Staphylococcus aureus; clinical isolate MS 8684) | MIC (Staphylococcus aureus; clinical isolate MS 8713)
50 mg/L: MIC (Pseudomonas aeruginosa; clinical isolate GN 221) | MIC (Pseudomonas aeruginosa; clinical isolate GN 376) | MIC (Pseudomonas aeruginosa; clinical isolate GN 383) | MIC (Pseudomonas aeruginosa; clinical isolate GN 1035) | MIC (Pseudomonas aeruginosa; clinical isolate GN 2565) | MIC (Pseudomonas aeruginosa; [5]) | MIC (Pseudomonas aeruginosa; clinical isolate S-1) | MIC (Pseudomonas aeruginosa; clinical isolate S-2) | MIC (Pseudomonas aeruginosa; clinical isolate S-4) | MIC (Escherichia coli; clinical isolate GN 3465)

CC1(C)S[C@@H]2[C@H](NC(=O)C(C(=O)O)c3ccccc3)C(=O)N2[C@H]1C(=O)O (stereo partly drawn) [Sodium Carbenicillin, SodiumCarbenicillin, reference compound]
0.79 mg/L: MIC (Staphylococcus aureus; clinical isolate MS 8619)
25 mg/L: MIC (Pseudomonas aeruginosa; clinical isolate GN 221)
> 200 mg/L: MIC (Proteus rettgeri) | MIC (Staphylococcus aureus; clinical isolate F-5) | MIC (Pseudomonas aeruginosa; clinical isolate GN 1035) | MIC (Escherichia coli; clinical isolate GN 3465) | MIC (Escherichia coli; clinical isolate GN 3611) | MIC (Escherichia coli; clinical isolate K-3) | MIC (Klebsiella pneumoniae [1]; clinical isolate GN 917) | MIC (Klebsiella pneumoniae [1]; clinical isolate GN 4081) | MIC (Klebsiella pneumoniae [1]; clinical isolate GN 4117) | MIC (Klebsiella pneumoniae [4])
< 1.57 mg/L: MIC (Escherichia coli NIHJ) | MIC [2] | MIC (Proteus vulgaris 3027)
30 mg/L: MIC (Pseudomonas aeruginosa; clinical isolate GN 383)
50 mg/L: MIC (Pseudomonas aeruginosa; clinical isolate GN 163) | MIC (Pseudomonas aeruginosa; clinical isolate GN 376) | MIC (Pseudomonas aeruginosa; clinical isolate GN 2987) | MIC (Pseudomonas aeruginosa; [5]) | MIC [3]
0.4 mg/L: MIC (Proteus morganii)
100 mg/L: MIC (Pseudomonas aeruginosa; clinical isolate GN 82) | MIC (Pseudomonas aeruginosa; clinical isolate GN 1091)
116%: Relative activity (β-lactamase)
200 mg/L: MIC (Pseudomonas aeruginosa; clinical isolate GN 2565) | MIC (Pseudomonas aeruginosa; clinical isolate S-1) | MIC (Pseudomonas aeruginosa; clinical isolate S-2) | MIC (Pseudomonas aeruginosa; clinical isolate S-3) | MIC (Pseudomonas aeruginosa; clinical isolate S-4)
0.8 mg/L: MIC (Proteus vulgaris) | MIC (Proteus mirabilis)

Source: patent publication US4110327A, “2,3 Diketo-piperazinocarbonylamino alkanoic acids and derivatives” (Toyama Chemical Co., Ltd., priority 1974, dated 1978)
